Measurements published in US12214058B2, “Imaging methods using deuterated compounds” (Genentech, Inc., priority 2014, dated 2025).
Several values for one entry are separate records, joined by “and”; a condition that tells them apart may be missing. Equal entries are not always repeated.

Legend:
[1] = test system: tau (NFTs) in human brain tissues; experiment: Autoradiography on postmortem human brain tissues; format: binding
Procedure: Autoradiography The tracer [^18F][A] or [^18F][A]-d2 was dissolved in PBS containing 5% DMSO and 5% ethanol at final concentration 40 μCi/mL. Then 0.5 ml of stock solution was transferred to a microscope slide with 5 μm thick freshly dried section of a tissue and incubated for 90 min at room temperature. The slides were washed by dipping into following solutions: PBS for 1 min, 70% ethanol 2 min, 30% ethanol 2 min and PBS 1 min. The samples were dried at room temperature for 30 min and exposed to phosphorimager plate for 20 h. The exposed plates were scanned at 25 μm resolution.
Autoradiographic evaluation of [^18F][A] and [^18F][A]-d2 was performed using brain tissues collected postmortem from human donors. […] The positive staining was found in grey matter of tissues containing high level of NFTs and high AD-amyloid characterized as Braak score 5. […] The NFT and Aβ-amyloid burden was measured by standard immunohistochemical methods.

[2] = Microsomal stability assay, human liver microsomes; format: in vitro ADME; settings: radiolabeled, 45 min incubation, n=3
Procedure: Microsomal stability assays The tracer [^18F][A]-d2 or [^18F][A] was dissolved in potassium phosphate (Kpi) buffer (100 mM) at concentration 500-600 μCi/mL. The non-radioactive 7 and 10 were dissolved in Kpi buffer at 10 μM concentration. The reaction vessel was charged with human or mouse liver microsome suspension (12.5 μL, 20 mg/mL) followed by Kpi buffer (388 μL, 10 mM), NADPH (50 μL, 10 mM) and incubated at 37° C. for 5-10 min. A solution of the radioactive [^18F][A]-d2 or [^18F][A] (50 μL, […]) or non-radioactive 7 or […] (50 μL, 10 μM) were added to the reaction vessel and the mixture was incubated at 37° C. […] The supernatant was analyzed by LCMS (System E).

[3] = Dynamic PET in anesthetized rhesus; format: in vivo; settings: 370 MBq i.v. bolus, PET over 240 min, versus [18F][A] and 18F T807
Procedure: [^18F][A]-d2, [^18F][A] or ^18F T807 (see Chien et al., J. Alzheimers Dis, 38:171-84 (2014)) (370 MBq (10 mCi)) was intravenous bolus injected into an anesthetized rhesus, and dynamic PET data acquired over 240 minutes. […] Data was collected from the same animal but on different days for each probe.

tau = experiment: Human PET imaging with [18F][A]-d2 (SUVR); format: in vivo; settings: for SUVR Frontal lobe / SUVR Occipital lobe / SUVR Parietal lobe / SUVR Temporal lobe / SUVR White matter: cerebellum gray as reference
Source text: A total of 5 subjects, 3 Alzheimer's disease (AD) patients and 2 healthy volunteers (HV) was used in this study. This study protocol required each subject to complete the following components: screening evaluation, MRI, [^18F]florbetapir (AD subjects only) and [^18F][A]-d2. The screening procedures included neuropsychological assessment, vital signs, ECG, physical exam, MRI, and [^18F]florbetapir PET imaging to confirm presence of amyloid deposition in patients clinically diagnosed with probable AD. In addition, each subject completed clinical assessments and clinical safety labs to ensure the subject was medically stable to complete the study protocol. The screening procedures occurred within 30 days prior to [^18F][A]-d2 imaging. Eligible subjects participated in a single [^18F][A]-d2 imaging session. The distribution of tau binding was assessed in each of the subject groups (AD and HV) to evaluate for binding to tau. For each AD subject, the distribution of Aβ and tau was compared. Tau binding in brain was assessed with PET using [^18F][A]-d2. Radioligand binding was compared in brains of HV subjects who should have minimal to negligible concentrations of tau compared to patients with AD, who are expected to have moderate to high densities of tau.
All subjects received a single injection of [^18F][A]-d2. Subjects received a bolus intravenous injection of no more than 370 MBq (˜10 mCi).
Images were acquired using a HR+ PET camera in three-dimensional mode and were reconstructed using an iterative algorithm including scatter and measured attenuation correction (^68Ge source). Dynamic images were acquired upon injection (˜370 MBq). The scanning protocol consisted of 2 scanning segments in the two healthy control (HC) subjects, Subjects 1 & 2 (0-120 min and ˜150-180 min) and of 3 segments in the suspected AD patient, Subject 3 (0-60 min, 93-123 min and 147-177 min).
The MR volumetric image, a summed image of the first 15 min after tracer administration of [^18F][A]-d2 were coregistered using Statistical Parametic Mapping SPM8 (software provided by members and collaborators of the Wellcome Trust Centre for Neuroimaging). Alignment of the additional PET segments to the first PET segment was performed using in-house developed analysis software written in Matlab® (version 8 Release 2014a). Then, using the MRI scan for anatomical delineation, irregular regions of interest (ROI) were drawn for each subject in the frontal, parietal, occipital, and temporal lobes, cerebellum gray, and white-matter (centrum semi-ovale) using MIM® software.
[^18F][A]-d2 tissue time activity curves (TAC) were expressed in SUV (Standardized Uptake Value) using each subject's weight and the corresponding tracer injected dose: TAC(SUV)=TAC(Bq/cm^3)×1000 cm^3/kg×Subject's weight(kg)/Injected dose(Bq). TAC creation and all subsequent analyses were performed using in-house developed analysis software written in Matlab®.
The ratio to cerebellum gray or standardized uptake value ratio (SUVR) was calculated. […] A clear separation of the curves is observed as early as 30 min post injection. The SUVR curves in the two healthy controls remained relatively constant soon after injection. The SUVR in the AD subject reached a plateau in the 90-120 min interval.

[4] = 40-60 min interval, Subject 1 (HC)
[5] = 40-60 min interval, Subject 2 (HC)
[6] = 40-60 min interval, Subject 3 (AD)
[7] = 90-120 min interval, Subject 1 (HC)
[8] = 90-120 min interval, Subject 2 (HC)
[9] = 90-120 min interval, Subject 3 (AD)

[2H]C([2H])([18F])CC1CCN(c2ccn3c(n2)nc2ccccc23)CC1 [[^18F][A]-d2, 1,1-dideutero-2-(1-(benzo[4,5]imidazo[1,2-a]pyrimidine-2-yl)piperidin-4-yl)-1-[^18F]fluoroethane]
staining of negative control tissues ([1]; high or moderate amyloid burden but no NFTs, Braak score 3 or 2): not positively stained
autoradiographic binding pattern ([1]; human brain tissues, positive staining in grey matter with high NFTs, Braak score 5): tau specific binding patterns
fraction attributed to parent compound [2]: 91.7±0.21% and 67.1±6.3%
stability / skull uptake of free fluoride [3]: increased stability reflected by a reduction of skull uptake of free fluoride
SUVR Frontal lobe (tau; [4]): 1.08
SUVR Occipital lobe (tau; [4]): 1.15
SUVR Parietal lobe (tau; [4]): 1.09
SUVR Temporal lobe (tau; [4]): 1.14
SUVR White matter (tau; [4]): 0.85
SUVR Frontal lobe (tau; [5]): 1.12
SUVR Occipital lobe (tau; [5]): 1.19
SUVR Parietal lobe (tau; [5]): 1.13
SUVR Temporal lobe (tau; [5]): 1.18
SUVR White matter (tau; [5]): 0.80
SUVR Frontal lobe (tau; [6]): 1.16
SUVR Occipital lobe (tau; [6]): 1.60
SUVR Parietal lobe (tau; [6]): 1.35
SUVR Temporal lobe (tau; [6]): 1.82
SUVR White matter (tau; [6]): 0.88
SUVR Frontal lobe (tau; [7]): 1.07
SUVR Occipital lobe (tau; [7]): 1.19
SUVR Parietal lobe (tau; [7]): 1.07
SUVR Temporal lobe (tau; [7]): 1.13
SUVR White matter (tau; [7]): 0.76
SUVR Frontal lobe (tau; [8]): 1.17
SUVR Occipital lobe (tau; [8]): 1.21
SUVR Parietal lobe (tau; [8]): 1.07
SUVR Temporal lobe (tau; [8]): 1.18
SUVR White matter (tau; [8]): 0.66
SUVR Frontal lobe (tau; [9]): 1.25
SUVR Occipital lobe (tau; [9]): 1.87
SUVR Parietal lobe (tau; [9]): 1.52
SUVR Temporal lobe (tau; [9]): 2.25
SUVR White matter (tau; [9]): 0.81
radioactivity uptake in bone tissue (tau; Subjects 1-3, human PET images): no radioactivity uptake in bone tissue
